Consider seven molecules from US20260234112A1, “COMPOUNDS, COMPOSITIONS, AND METHODS OF USE THEREOF” (Type6 Therapeutics, Inc., priority 2023, published 2026).

The structures appear in SMILES notation.

Usually Kd stands for the concentration at which binding is half-saturated.

This assay deals with T1, Cdk2(2-298) (Homo sapiens, UniProt P24941).
T1 construct: Biotinylated N-terminal avi-tagged Cdk2(2-298) or Cdk1(1-297) was immobilized
The assay is described as follows: Surface Plasmon Resonance (SPR) compound interaction, Biacore 8K. Type of assay: binding. Conditions: single-cycle kinetics (SCK, "S"), dissociation 1800 sec, read-out: Activity rating (KD). An outline of the steps:
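Biotinylated N-terminal avi-tagged Cdk2(2-298) captured on streptavidin chip at 2500–3000 RU in 25 mM HEPES, 150 mM NaCl, 0.05% Tween20, pH 7.5, 1% DMSO final. Eight 3-fold compound concentrations injected 120 sec at 30 μl/min, multi- or single-cycle kinetics; dissociation 180 sec (MCK) or 1800 sec (SCK).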
(In general: Surface plasmon resonance follows binding to a sensor surface in real time, without labels.)
As for `N[C@H]1CC[C@H](Nc2nccc(-c3cnccc3Sc3ccc(NS(=O)(=O)c4cccc5ccccc45)cc3F)n2)CC1` [Compound 118, N-[4-(1r,4r)[[3-[2-[(4-Aminocyclohexyl)amino]pyrimidin-4-yl]-4-pyridyl]sulfanyl]-3-fluorophenyl]naphthalene-1-sulfonamide], the Kd was 100 to 1000 nM. As for `O=S(=O)(Nc1ccc(Oc2ncncc2-c2ccnc(N[C@H]3CCCNC3)n2)c(F)c1)c1ccccc1Cl` [Compound 127, N-[3-fluoro-4-[5-[2-[[(3S)-3-piperidyl]amino]pyrimidin-4-yl]pyrimidin-4-yl]oxyphenyl] 2-chlorobenzenesulfonamide], the Kd was in the range of 11 to 100 nM. Turning to `N[C@H]1CC[C@H](Nc2nccc(-c3cncnc3Oc3ccc(NS(=O)(=O)c4ccccc4Cl)cc3F)n2)CC1` [Compound 128, N-[4-[5-[2-[(1r,4r)(4-aminocyclohexyl)amino]pyrimidin-4-yl]pyrimidin-4-yl]oxy-3-fluorophenyl] 2-chlorobenzenesulfonamide], the Kd was ≤ 10 nM. For `O=S(=O)(Nc1ccc(Oc2ncncc2-c2ccnc(N[C@H]3CCCNC3)n2)c(F)c1)c1ccccc1` [Compound 129, N-[3-fluoro-4-[5-[2-[[(3S)-3-piperidyl]amino]pyrimidin-4-yl]pyrimidin-4-yl]oxy-phenyl] benzenesulfonamide], the Kd lay in the range of 100 to 1000 nM. As for `N[C@H]1CC[C@H](Nc2nccc(-c3cncnc3Oc3ccc(NS(=O)(=O)c4ccccc4)cc3F)n2)CC1` [Compound 130, N-[4-[5-[2-[(1r,4r)(4-aminocyclohexyl)amino]pyrimidin-4-yl]pyrimidin-4-yl]oxy-3-fluoro-phenyl] benzenesulfonamide], the Kd lay in the range of 1000 to 5000 nM. Consider `N[C@H]1CC[C@H](Nc2nccc(-c3ccncc3Oc3ccc(NS(=O)(=O)c4ccccc4Cl)cc3F)n2)CC1` [Compound 131, N-[4-(1r,4r)[[4-[2-[(4-aminocyclohexyl)amino]pyrimidin-4-yl]-3-pyridyl]oxy]-3-fluorophenyl] 2-chlorobenzenesulfonamide], for which the Kd was 11 to 100 nM. With `N[C@H]1CC[C@H](Nc2nccc(-c3ncccc3Oc3ccc(NS(=O)(=O)c4ccccc4Cl)cc3F)n2)CC1` [Compound 132, N-[4-[[2-[2-(1r,4r)[(4-Aminocyclohexyl)amino]pyrimidin-4-yl]-3-pyridyl]oxy]-3-fluoro-phenyl] 2-chlorobenzenesulfonamide], the Kd is 100 to 1000 nM.
